Assay results: the NIST ThermoML archive (doi:10.1016/j.jct.2017.07.016)

Assay: xn = mol fraction of the nth substance listed
Conditions: 96.7 kPa, Liquid; for viscosity: Capillary tube (Ostwald / Ubbelohde) method; for mass density: Vibrating tube method

CCCCCCn1cc[n+](C)c1.[Cl-] [1-hexyl-3-methylimidazolium chloride] + CN(C)C=O
Conditions | mass density [kg/m3] | viscosity [mPa·s]
303.15 K, x1 = 0.134 | 974.15 | 2.479
303.15 K, x1 = 0.265 | 995.06 | 8.757
303.15 K, x1 = 0.352 | 1004.26 | 20.21
303.15 K, x1 = 0.457 | 1013.06 | 47.11
303.15 K, x1 = 0.591 | 1021.21 | 158.5
303.15 K, x1 = 0.764 | 1029.04 | 666.71
303.15 K, x1 = 0.871 | 1032.74 | 2341.7
303.15 K, x1 = 1 | 1036.07 | 5718.5
308.15 K, x1 = 0.134 | 970.01 | 2.265
308.15 K, x1 = 0.265 | 991.32 | 7.582
308.15 K, x1 = 0.352 | 1000.71 | 16.69
308.15 K, x1 = 0.457 | 1009.56 | 38
308.15 K, x1 = 0.591 | 1018.02 | 120.91
308.15 K, x1 = 0.764 | 1026.03 | 466.32
308.15 K, x1 = 0.871 | 1029.81 | 1478.3
308.15 K, x1 = 1 | 1033.22 | 3430.8
313.15 K, x1 = 0.134 | 965.87 | 2.075
313.15 K, x1 = 0.265 | 987.59 | 6.651
313.15 K, x1 = 0.352 | 997.11 | 14.24
313.15 K, x1 = 0.457 | 1006.09 | 30.89
313.15 K, x1 = 0.591 | 1014.86 | 92.58
313.15 K, x1 = 0.764 | 1023.06 | 333.82
313.15 K, x1 = 0.871 | 1026.9 | 1002.9
313.15 K, x1 = 1 | 1030.38 | 2146.1
318.15 K, x1 = 0.134 | 961.73 | 1.962
318.15 K, x1 = 0.265 | 983.87 | 5.854
318.15 K, x1 = 0.352 | 993.45 | 12.13
318.15 K, x1 = 0.457 | 1002.63 | 25.38
318.15 K, x1 = 0.591 | 1011.71 | 72.08
318.15 K, x1 = 0.764 | 1020.1 | 241.58
318.15 K, x1 = 0.871 | 1023.98 | 685.17
318.15 K, x1 = 1 | 1027.56 | 1390.4
323.15 K, x1 = 0.134 | 957.59 | 1.797
323.15 K, x1 = 0.265 | 980.14 | 5.212
323.15 K, x1 = 0.352 | 989.87 | 10.45
323.15 K, x1 = 0.457 | 999.19 | 21.15
323.15 K, x1 = 0.591 | 1008.57 | 57.17
323.15 K, x1 = 0.764 | 1017.14 | 178.79
323.15 K, x1 = 0.871 | 1021.09 | 479.12
323.15 K, x1 = 1 | 1024.75 | 928.1
328.15 K, x1 = 0.134 | 953.45 | 1.656
328.15 K, x1 = 0.265 | 976.43 | 4.647
328.15 K, x1 = 0.352 | 986.25 | 9.067
328.15 K, x1 = 0.457 | 995.78 | 17.82
328.15 K, x1 = 0.591 | 1005.44 | 45.82
328.15 K, x1 = 0.764 | 1014.17 | 135.89
328.15 K, x1 = 0.871 | 1018.25 | 344.77
328.15 K, x1 = 1 | 1021.92 | 638.79
333.15 K, x1 = 0.134 | 949.31 | 1.544
333.15 K, x1 = 0.265 | 972.72 | 4.175
333.15 K, x1 = 0.352 | 982.75 | 7.933
333.15 K, x1 = 0.457 | 992.43 | 15.17
333.15 K, x1 = 0.591 | 1002.31 | 37.41
333.15 K, x1 = 0.764 | 1011.21 | 104.75
333.15 K, x1 = 0.871 | 1015.42 | 253.05
333.15 K, x1 = 1 | 1019.13 | 453.59
338.15 K, x1 = 0.134 | 945.16 | 1.426
338.15 K, x1 = 0.265 | 969.01 | 3.776
338.15 K, x1 = 0.352 | 979.34 | 7.016
338.15 K, x1 = 0.457 | 989.15 | 13.04
338.15 K, x1 = 0.591 | 999.19 | 30.94
338.15 K, x1 = 0.764 | 1008.27 | 82.3
338.15 K, x1 = 0.871 | 1012.58 | 190.24
338.15 K, x1 = 1 | 1016.38 | 327.52
343.15 K, x1 = 0.134 | 941 | 1.328
343.15 K, x1 = 0.265 | 965.31 | 3.431
343.15 K, x1 = 0.352 | 975.92 | 6.246
343.15 K, x1 = 0.457 | 985.94 | 11.3
343.15 K, x1 = 0.591 | 996.09 | 25.86
343.15 K, x1 = 0.764 | 1005.34 | 65.58
343.15 K, x1 = 0.871 | 1009.75 | 143.98
343.15 K, x1 = 1 | 1013.65 | 243.04
348.15 K, x1 = 0.134 | 936.86 | 1.244
348.15 K, x1 = 0.265 | 961.62 | 3.135
348.15 K, x1 = 0.352 | 972.5 | 5.564
348.15 K, x1 = 0.457 | 982.8 | 9.895
348.15 K, x1 = 0.591 | 992.99 | 21.85
348.15 K, x1 = 0.764 | 1002.41 | 52.81
348.15 K, x1 = 0.871 | 1006.93 | 112.06
348.15 K, x1 = 1 | 1010.91 | 183.45
353.15 K, x1 = 0.134 | 932.7 | 1.171
353.15 K, x1 = 0.265 | 957.92 | 2.875
353.15 K, x1 = 0.352 | 969.09 | 5.007
353.15 K, x1 = 0.457 | 979.67 | 8.708
353.15 K, x1 = 0.591 | 989.9 | 18.59
353.15 K, x1 = 0.764 | 999.51 | 43.42
353.15 K, x1 = 0.871 | 1004.11 | 88.51
353.15 K, x1 = 1 | 1008.18 | 140.06
